Read-outs that look alike come from different tables or passages of the source.
Assays:
[1] = tested on: relapsed or refractory sALCL; conditions: cited from earlier work
[2] = tested on: newly diagnosed CD30-positive mature T- and NK-cell neoplasms, including sALCL; conditions: given concomitantly with CHP; cited from earlier work
[3] = Randomized, double-blind Phase 3 clinical trial of A+CHP versus CHOP: safety (adverse events, exposure); conditions: human, in vivo
Excerpt: TRIAL DESIGN: Approximately 450 patients (approximately 225 patients per treatment arm) are randomized in this study. The standard of care in this patient population consists of 6-8 cycles of CHOP chemotherapy. Patients are randomized in a 1:1 manner to receive 21-day cycles of treatment in 1 of the following 2 treatment groups: Standard-of-care arm: 6-8 cycles of CHOP; or Experimental arm: 6-8 cycles of brentuximab vedotin plus CHP (A+CHP). A target of 8 cycles of study treatment are administered, per investigator decision, based on patient-specific characteristics, including stage of disease and IPI risk score.
Safety is evaluated by the incidence of adverse events, using the Medical Dictionary for Regulatory Activities (MedDRA; v19.0), and National Cancer Institute Common Terminology Criteria for Adverse Events v4.03, and by changes in vital signs, and clinical laboratory results.
All efficacy evaluations are conducted using the intent-to-treat population unless otherwise specified. Safety is analyzed in patients who received at least one dose of study drug (safety population).
Subjects were randomly assigned in a 1:1 ratio to receive 21-day cycles of either A+CHP or CHOP for 6 or 8 cycles, with the number of cycles determined at the outset and based on investigator discretion. […]

| Molecule | median duration of response ([1]; 1.8 mg/kg every 3 weeks) [months] | objective response (CR+PR) rate ([1]; 1.8 mg/kg every 3 weeks) [%] | patients achieving a CR ([1]; 1.8 mg/kg every 3 weeks) [%] | tolerability ([1]; manageable side effects) | median duration of response ([1]; subset of patients who achieved a CR) [months] | maximum tolerated dose [2] [mg/kg] | effect of primary prophylactic G-CSF on febrile neutropenia [3] |
| --- | --- | --- | --- | --- | --- | --- | --- |
| brentuximab vedotin | 12.6 | 86 | 57 | generally well tolerated | 13.2 | 1.8 | – |
| G-CSF (protein, UniProt P09919 31-207, looked up) Granulocyte …: TPLGPASSLPQSFLLKCLEQVRKIQGDGAALQEKLVSECATYKLCHPEELVLLGHSLGIPWAPLSSCPSQALQLAGCLSQLHSGLFLYQGLLQALEGISPELGPTLDTLQLDVADFATTIWQQMEELGMAPALQPTQGAMPAFASAFQRRAGGVLVASHLQSFLEVSYRVLRHLAQP | – | – | – | – | – | – | reduced the incidence and severity |
